From paper PMC2810552 (Journal of medicinal chemistry, 2009)
Like-named read-outs stand apart in the source and are kept apart here.

Assays:
[1] = molecular target: T1, Gal4DBD-GRLBD-VP16 fusion protein in HeLa cells (Homo sapiens, UniProt P04150); type: cell-based; conditions: for Luc activity induced (in words): up to 6 µM
T1 sequence (P04150 524-758 limits assumed): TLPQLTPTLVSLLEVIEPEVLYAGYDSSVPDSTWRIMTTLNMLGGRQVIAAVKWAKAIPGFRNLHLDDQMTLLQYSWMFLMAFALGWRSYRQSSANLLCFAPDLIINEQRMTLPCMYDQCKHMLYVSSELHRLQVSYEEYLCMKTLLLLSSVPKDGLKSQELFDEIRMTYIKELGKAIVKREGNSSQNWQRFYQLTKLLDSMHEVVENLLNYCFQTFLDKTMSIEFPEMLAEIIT

[2] = molecular target: T2, breast cancer cell line MCF7 (Homo sapiens, UniProt P04150); experiment: Cell-based functional permeability assay: luciferase reporter in MCF7 cells
T2 sequence (P04150 524-758 limits assumed): T1 sequence (P04150 524-758 limits assumed)

[3] = Solubility limit observed in the Luc assay; type: physicochemical; conditions: cell-based Luc induction (reporter) assay in HeLa cells
[4] = molecular target: T1, Gal4DBD-GRLBD-VP16 fusion protein in HeLa cells; conditions: cited from earlier work

Structure (SMILES): CC(=O)NCCCN(C)CCCNC(=S)NCCSCC(=O)[C@@]1(O)[C@H](C)C[C@H]2[C@@H]3CCC4=CC(=O)C=C[C@]4(C)[C@@]3(F)[C@@H](O)C[C@@]21C [Ac-Da-Sdex (28), Ac-Da-Sdex]
- concentration at which maximum Luc induction was achieved [1]: 6 µM
- maximum Luc induction [1]: 3,000 fold

Structure (SMILES): CC(=O)NCCNC(=S)NCCSCC(=O)[C@@]1(O)[C@H](C)C[C@H]2[C@@H]3CCC4=CC(=O)C=C[C@]4(C)[C@@]3(F)[C@@H](O)C[C@@]21C [Ac-Et-Sdex (15), Ac-Et-Sdex]
- EC50 [2]: 0.25 µM
- concentration at which maximum Luc induction was achieved ([2]; MCF7 cells): 1 µM
- maximum Luc induction ([2]; MCF7 cells): 1,200 fold
- concentration at which maximum Luc induction was achieved [1]: 0.6 µM

Structure (SMILES): C[C@H]1C[C@@H]2[C@H]3CCC4=CC(=O)C=C[C@@]4(C)[C@]3(F)[C@H](O)C[C@@]2(C)[C@]1(O)C(=O)CSCCNC(=S)NCCNC(=O)c1cc(NC(=O)c2cc(NC(=O)c3nccn3C)cn2C)cn1C [ImPy2-Et-Sdex (22), ImPy2-Et-Sdex]
- concentration at which maximum Luc induction was achieved [1]: 6 µM

Structure (SMILES): C[C@H]1C[C@@H]2[C@H]3CCC4=CC(=O)C=C[C@@]4(C)[C@]3(F)[C@H](O)C[C@@]2(C)[C@]1(O)C(=O)NCCNC(=O)c1cc(NC(=O)c2cc(NC(=O)c3cc(NC(=O)c4nccn4C)cn3C)cn2C)cn1C [ImPy3-Et-Oxdex (25), ImPy3-Et-Oxdex]
- solubility [3]: ≤ 10 µM
- Luc induction at 10 µM, times lower than that of ImPy2-Et-Oxdex [1]: 4 times
- Luc induction at 10 µM, times lower than that of ImPy-Et-Oxdex [1]: 7 times

Structure (SMILES): C[C@H]1C[C@@H]2[C@H]3CCC4=CC(=O)C=C[C@@]4(C)[C@]3(F)[C@H](O)C[C@@]2(C)[C@]1(O)C(=O)CSCCNC(=S)NCCNC(=O)c1cc(NC(=O)c2cc(NC(=O)c3cc(NC(=O)c4nccn4C)cn3C)cn2C)cn1C [ImPy3-Et-Sdex (21), ImPy3-Et-Sdex]
- Luc activity induced (in words) [1]: did not achieve the maximum induction at 6 µM

Structure (SMILES): C[C@H]1C[C@@H]2[C@H]3CCC4=CC(=O)C=C[C@@]4(C)[C@]3(F)[C@H](O)C[C@@]2(C)[C@]1(O)C(=O)CSCCNC(=S)NCCNC(=O)c1cc(NC(=O)c2cc(NC(=O)c3cc(NC(=O)c4cc(NC(=O)c5nccn5C)cn4C)cn3C)cn2C)cn1C [ImPy4-Et-Sdex (20), ImPy4-Et-Sdex]
- Luc activity induced (in words) [1]: did not achieve the maximum induction at 6 µM

Structure (SMILES): C[C@H]1C[C@@H]2[C@H]3CCC4=CC(=O)C=C[C@@]4(C)[C@]3(F)[C@H](O)C[C@@]2(C)[C@]1(O)C(=O)CSCCNC(=S)NCCNC(=O)c1cc(NC(=O)c2cc(NC(=O)c3cc(NC(=O)c4cc(NC(=O)CCCNC(=O)c5nccn5C)cn4C)cn3C)cn2C)cn1C [ImPy4γ-Et-Sdex (19), ImPy4γ-Et-Sdex]
- Luc activity induced (in words) [1]: lowest Luc activity among all Sdex conjugates

Structure (SMILES): C[C@H]1C[C@@H]2[C@H]3CCC4=CC(=O)C=C[C@@]4(C)[C@]3(F)[C@H](O)C[C@@]2(C)[C@]1(O)C(=O)CSCCNC(=S)NCCNC(=O)c1cc(NC(=O)c2cc(NC(=O)c3cc(NC(=O)c4cc(NC(=O)CCCNC(=O)c5cc(NC(=O)c6nccn6C)cn5C)cn4C)cn3C)cn2C)cn1C [ImPy5γ-Et-Sdex (18), ImPy5γ-Et-Sdex]
- Luc activity induced (in words) [1]: higher levels compared to ImPy4γ-Et-Sdex (19)

Structure (SMILES): C[C@H]1C[C@@H]2[C@H]3CCC4=CC(=O)C=C[C@@]4(C)[C@]3(F)[C@H](O)C[C@@]2(C)[C@]1(O)C(=O)CSCCNC(=S)NCCNC(=O)c1cc(NC(=O)c2cc(NC(=O)c3cc(NC(=O)c4cc(NC(=O)CCCNC(=O)c5cc(NC(=O)c6cc(NC(=O)c7nccn7C)cn6C)cn5C)cn4C)cn3C)cn2C)cn1C [ImPy6γ-Et-Sdex (17), ImPy6γ-Et-Sdex]
- Luc activity induced (in words) [1]: higher levels compared to ImPy4γ-Et-Sdex (19)

Structure (SMILES): C[C@H]1C[C@@H]2[C@H]3CCC4=CC(=O)C=C[C@@]4(C)[C@]3(F)[C@H](O)C[C@@]2(C)[C@]1(O)C(=O)NCCNC(=O)c1cc(NC(=O)c2cc(NC(=O)c3cc(NC(=O)c4cc(NC(=O)CCCNC(=O)c5cc(NC(=O)c6cc(NC(=O)c7cc(NC(=O)c8nccn8C)cn7C)cn6C)cn5C)cn4C)cn3C)cn2C)cn1C [ImPy7γ-Et-Oxdex (24), ImPy7γ-Et-Oxdex]
- solubility [3]: ≤ 10 µM
- Luc induction at 10 µM, times lower than that of ImPy2-Et-Oxdex [1]: 4 times
- Luc induction at 10 µM, times lower than that of ImPy-Et-Oxdex [1]: 7 times

Structure (SMILES): C[C@H]1C[C@@H]2[C@H]3CCC4=CC(=O)C=C[C@@]4(C)[C@]3(F)[C@H](O)C[C@@]2(C)[C@]1(O)C(=O)CSCCNC(=S)NCCNC(=O)c1cc(NC(=O)c2cc(NC(=O)c3cc(NC(=O)c4cc(NC(=O)CCCNC(=O)c5cc(NC(=O)c6cc(NC(=O)c7cc(NC(=O)c8nccn8C)cn7C)cn6C)cn5C)cn4C)cn3C)cn2C)cn1C [ImPy7γ-Et-Sdex (16), ImPy7γ-Et-Sdex]
- Luc activity / cellular uptake (in words) ([2]; MCF7 cells): modest improvement of cellular uptake
- Luc activity induction at 6 µM ([1]; 6 µM): 1,500 fold
- Luc activity induced (in words) [1]: higher levels compared to ImPy4γ-Et-Sdex (19)

Structure (SMILES): C[C@@H]1C[C@H]2[C@@H]3CCC4=CC(=O)C=C[C@]4(C)[C@@]3(F)[C@@H](O)C[C@]2(C)[C@@]1(O)C(=O)CSCCNC(=S)NCCCN(C)CCCNC(=O)CCNC(=O)c1cc(NC(=O)c2cc(NC(=O)c3cc(NC(=O)c4cc(NC(=O)CCCNC(=O)c5cc(NC(=O)c6cc(NC(=O)c7cc(NC(=O)c8nccn8C)cn7C)cn6C)cn5C)cn4C)cn3C)cn2C)cn1C [ImPy7γ-βDa-Sdex (6), ImPy7γ-βDa-Sdex]
- Luc activity induced (in words) ([4]; cell-based functional assay): modest Luc activity

Structure (SMILES): C[C@H]1C[C@@H]2[C@H]3CCC4=CC(=O)C=C[C@@]4(C)[C@]3(F)[C@H](O)C[C@@]2(C)[C@]1(O)C(=O)NCCNC(=O)c1cc(NC(=O)c2nccn2C)cn1C [ImPy-Et-Oxdex (27), ImPy-Et-Oxdex]
- concentration at which maximum Luc induction was achieved [1]: ~20 µM

Structure (SMILES): C[C@H]1C[C@@H]2[C@H]3CCC4=CC(=O)C=C[C@@]4(C)[C@]3(F)[C@H](O)C[C@@]2(C)[C@]1(O)C(=O)CSCCNC(=S)NCCNC(=O)c1cc(NC(=O)c2cncn2C)cn1C [ImPy-Et-Sdex (23), ImPy-Et-Sdex]
- EC50 [2]: 0.94 µM
- maximum Luc induction [1]: 3700 fold

Structure (SMILES): C[C@@H]1C[C@H]2[C@@H]3CCC4=CC(=O)C=C[C@]4(C)[C@@]3(F)[C@@H](O)C[C@]2(C)[C@@]1(O)C(N)=O [Oxdex-CONH2 (4), Oxdex-CONH2, reference compound]
- EC50 ([4]; read-out: EC50 of Luc induction, HeLa cells): 35 ± 3 µM
